Assay results from patent US11590139B2, “Substituted aminopurine compounds, compositions thereof, and methods of treatment therewith” (Signal Pharmaceuticals, LLC, priority 2014, dated 2023).

The compounds below were run on Lox-IMVI melanoma cell line (assay: Lox-IMVI anti-proliferative assay (growth inhibition, Cell Titer-Glo)). Conditions: Homo sapiens; IC50 activity level in the cell-based Lox-IMVI anti-proliferative assay; read-out: Activity.
Assay type: cell-based, human
Method: Determination of the Growth Inhibitory Effect of Aminopurine Compounds. The Lox-IMVI melanoma cell line (Source: NCI-DCTD, catalog No. 0507283) was maintained and tested in RPMI+10% FBS. The seeding density for the cell line was optimized to ensure assay linearity in 384-well plates.
Increasing concentrations of Aminopurine Compound (0.5 nM to 10 μM) were spotted in a 10-point serial dilution fashion (3-fold dilution) in duplicate within the plate via an acoustic dispenser (EDC ATS-100) into an empty 384-well plate. The dimethyl sulfoxide (DMSO) concentration was kept constant for a final assay concentration of 0.2% DMSO. Prior to testing, cells were grown and expanded in culture flasks to provide sufficient amounts of starting material. Cells were then diluted to their desired densities and added directly to the compound-spotted 384-well plates. Cells were allowed to grow for 72 hours in 5% CO2 at 37° C. At the time when exposure of cells to compound began (t0), initial cell number was assessed via a viability assay (Cell Titer-Glo) by quantifying the level of luminescence generated by adenosine-5′-triphosphate (ATP) present in viable cells. After 72 hours, cell viability of compound-treated cells was assessed via Cell Titer-Glo Luminescent Cell Viability Assay (Promega Corporation, Madison, Wis.) and read for luminescence.
All data was normalized and represented as a percentage of the DMSO-treated control cells after 72 h. Results were expressed as a IC50 value, which is the compound concentration required to inhibit 50% of the untreated control cells during the 72 hours of treatment.
A Four Parameter Logistic Model (Sigmoidal Dose-Response Model) was used to determine the compound's IC50. y=(A+((B−A)/(1+((C/x)^D))))
wherein: • A=YMin • B=YMax • C=EC50 • D=Hill Slope • IC50 is the compound concentration when Y=50% of DMSO control • Y=Luminescence unit
All inhibition curves were processed and evaluated using XLFit and Activity Base (IDBS).

Compound	IC50 [nM]
NC(=O)[C@H]1CC[C@@H](n2c(Nc3c(F)cc(F)cc3F)nc3cnc(NC4CCOCC4)nc32)CC1 [Example 11]	< 250
NC(=O)[C@H]1CC[C@@H](n2c(Nc3c(F)cc(Cl)cc3Cl)nc3cnc(NC4CCOCC4)nc32)CC1 [Example 40]	< 250
NC(=O)[C@H]1CC[C@@H](n2c(Nc3c(F)cccc3F)nc3cnc(NC4CCC4)nc32)CC1 [Example 42]	> 1000
NC(=O)[C@H]1CC[C@@H](n2c(Nc3c(Cl)cccc3Cl)nc3cnc(NC4CCC4)nc32)CC1 [Example 51]	500 to 1000
CC(C)Nc1ncc2nc(Nc3c(Cl)cccc3Cl)n([C@H]3CC[C@@H](C(N)=O)CC3)c2n1 [Example 52]	> 1000
NC(=O)[C@H]1CC[C@@H](n2c(Nc3c(F)cc(F)cc3Cl)nc3cnc(NC4CCOCC4)nc32)CC1 [Example 53]	< 250
NC(=O)[C@H]1CC[C@@H](n2c(Nc3c(F)cc(F)cc3F)nc3cnc(NC4COC4)nc32)CC1 [Example 55, (1s,4s)-4-(2-(oxetan-3-ylamino)-8-(2,4,6-trifluorophenylamino)-9H-purin-9-yl)cyclohexanecarboxamide]	> 1000
NC(=O)[C@H]1CC[C@@H](n2c(Nc3c(Cl)cccc3Cl)nc3cnc(NC4COC4)nc32)CC1 [Example 56, (1s,4s)-4-(8-(2,6-dichlorophenylamino)-2-(oxetan-3-ylamino)-9H-purin-9-yl)cyclohexanecarboxamide]	> 1000
NC(=O)[C@H]1CC[C@@H](n2c(Nc3c(F)cccc3Cl)nc3cnc(NC4COC4)nc32)CC1 [Example 57, (1s,4s)-4-(8-(2-chloro-6-fluorophenylamino)-2-(oxetan-3-ylamino)-9H-purin-9-yl)cyclohexanecarboxamide]	> 1000
NC(=O)[C@H]1CC[C@@H](n2c(Nc3cc(F)c(F)cc3F)nc3cnc(NC4CCOCC4)nc32)CC1 [Example 58, (1s,4s)-4-(2-(tetrahydro-2H-pyran-4-ylamino)-8-(2,4,5-trifluorophenylamino)-9H-purin-9-yl)cyclohexanecarboxamide]	500 to 1000
CC(C)Nc1ncc2nc(Nc3c(Cl)cc(Cl)cc3Cl)n([C@H]3CC[C@@H](C(N)=O)CC3)c2n1 [Example 59, (1s,4s)-4-(2-(isopropylamino)-8-(2,4,6-trichlorophenylamino)-9H-purin-9-yl)cyclohexanecarboxamide]	500 to 1000
NC(=O)[C@H]1CC[C@@H](n2c(Nc3ccc(Cl)cc3F)nc3cnc(NC4CCOCC4)nc32)CC1 [Example 60, (1s,4s)-4-(8-(4-chloro-2-fluorophenylamino)-2-(tetrahydro-2H-pyran-4-ylamino)-9H-purin-9-yl)cyclohexanecarboxamide]	500 to 1000
NC(=O)[C@H]1CC[C@@H](n2c(Nc3cccc(F)c3Cl)nc3cnc(NC4CCOCC4)nc32)CC1 [Example 61, (1s,4s)-4-(8-(2-chloro-3-fluorophenylamino)-2-(tetrahydro-2H-pyran-4-ylamino)-9H-purin-9-yl)cyclohexanecarboxamide]	> 1000
NC(=O)[C@H]1CC[C@@H](n2c(Nc3cccc(Cl)c3Cl)nc3cnc(NC4CCOCC4)nc32)CC1 [Example 62, (1s,4s)-4-(8-(2,3-dichlorophenylamino)-2-(tetrahydro-2H-pyran-4-ylamino)-9H-purin-9-yl)cyclohexanecarboxamide]	> 1000
Cc1cccc(F)c1Nc1nc2cnc(NC3CCOCC3)nc2n1[C@H]1CC[C@@H](C(N)=O)CC1 [Example 63, (1s,4s)-4-(8-(2-fluoro-6-methylphenylamino)-2-(tetrahydro-2H-pyran-4-ylamino)-9H-purin-9-yl)cyclohexanecarboxamide]	> 1000
NC(=O)[C@H]1CC[C@@H](n2c(Nc3cc(Cl)c(F)cc3F)nc3cnc(NC4CCOCC4)nc32)CC1 [Example 64, (1s,4s)-4-(8-(5-chloro-2,4-difluorophenylamino)-2-(tetrahydro-2H-pyran-4-ylamino)-9H-purin-9-yl)cyclohexanecarboxamide]	> 1000
NC(=O)[C@H]1CC[C@@H](n2c(Nc3cc(Cl)c(Cl)cc3Cl)nc3cnc(NC4CCOCC4)nc32)CC1 [Example 65, (1s,4s)-4-(2-(tetrahydro-2H-pyran-4-ylamino)-8-(2,4,5-trichlorophenylamino)-9H-purin-9-yl)cyclohexanecarboxamide]	> 1000
NC(=O)[C@H]1CC[C@@H](n2c(Nc3ccc(F)c(F)c3F)nc3cnc(NC4CCOCC4)nc32)CC1 [Example 66, (1s,4s)-4-(2-(tetrahydro-2H-pyran-4-ylamino)-8-(2,3,4-trifluorophenylamino)-9H-purin-9-yl)cyclohexanecarboxamide]	500 to 1000
NC(=O)[C@H]1CC[C@@H](n2c(Nc3c(F)ccc(Cl)c3F)nc3cnc(NC4CCOCC4)nc32)CC1 [Example 67, (1s,4s)-4-(8-(3-chloro-2,6-difluorophenylamino)-2-(tetrahydro-2H-pyran-4-ylamino)-9H-purin-9-yl)cyclohexanecarboxamide]	> 1000
NC(=O)[C@H]1CC[C@@H](n2c(Nc3c(Cl)cc(Cl)cc3Cl)nc3cnc(NC4CCCC4)nc32)CC1 [Example 68, (1s,4s)-4-(2-(cyclopentylamino)-8-(2,4,6-trichlorophenylamino)-9H-purin-9-yl)cyclohexanecarboxamide]	500 to 1000
Cc1cccc(Nc2nc3cnc(NC4CCOCC4)nc3n2[C@H]2CC[C@@H](C(N)=O)CC2)c1Cl [Example 69, (1s,4s)-4-(8-(2-chloro-3-methylphenylamino)-2-(tetrahydro-2H-pyran-4-ylamino)-9H-purin-9-yl)cyclohexanecarboxamide]	> 1000
NC(=O)[C@H]1CC[C@@H](n2c(Nc3cc(F)c(Cl)cc3F)nc3cnc(NC4CCOCC4)nc32)CC1 [Example 70, (1s,4s)-4-(8-(4-chloro-2,5-difluorophenylamino)-2-(tetrahydro-2H-pyran-4-ylamino)-9H-purin-9-yl)cyclohexanecarboxamide]	500 to 1000
Cc1cc(Nc2nc3cnc(NC4CCOCC4)nc3n2[C@H]2CC[C@@H](C(N)=O)CC2)c(F)cc1Cl [Example 71, (1s,4s)-4-(8-(4-chloro-2-fluoro-5-methylphenylamino)-2-(tetrahydro-2H-pyran-4-ylamino)-9H-purin-9-yl)cyclohexanecarboxamide]	> 1000
NC(=O)[C@H]1CC[C@@H](n2c(Nc3ccc(Cl)c(F)c3F)nc3cnc(NC4CCOCC4)nc32)CC1 [Example 72, (1s,4s)-4-(8-(4-chloro-2,3-difluorophenylamino)-2-(tetrahydro-2H-pyran-4-ylamino)-9H-purin-9-yl)cyclohexanecarboxamide]	250 to 500
NC(=O)[C@H]1CC[C@@H](n2c(Nc3ccc(Cl)c(Cl)c3Cl)nc3cnc(NC4CCOCC4)nc32)CC1 [Example 73, (1s,4s)-4-(2-(tetrahydro-2H-pyran-4-ylamino)-8-(2,3,4-trichlorophenylamino)-9H-purin-9-yl)cyclohexanecarboxamide]	> 1000
Cc1cc(F)cc(Cl)c1Nc1nc2cnc(NC3CCOCC3)nc2n1[C@H]1CC[C@@H](C(N)=O)CC1 [Example 74, (1s,4s)-4-(8-(2-chloro-4-fluoro-6-methylphenylamino)-2-(tetrahydro-2H-pyran-4-ylamino)-9H-purin-9-yl)cyclohexanecarboxamide]	> 1000
